Measured values: US20230233545A1, “TREATMENT OF ATRIAL DYSFUNCTION” (MyoKardia, Inc., priority 2020, published 2023)

Assays:
[1] = system: beagle dogs under isoflurane anesthesia, right-atrial burst pacing; test: AF inducibility and LA size/function with phenylephrine on board (Example 3); conditions: P<0.05
[2] = system: beagle dogs (without left ventricular dysfunction); test: AF inducibility and LA size/function with phenylephrine on board, dobutamine (Example 4); format: in vivo; conditions: FIG. 6
Procedure: Once sinus rhythm was re-established (cardioversion was used if AF persisted for more than 30 minutes), a third anesthetized ECHO was performed.
The effects of dobutamine on AF inducibility and LA size and function were examined by echocardiography (ECHO) and electrocardiogram (ECG) in beagle dogs with phenylephrine (PE) on board, and compared to the effects of PE alone. The beagle dogs (without left ventricular dysfunction) were assessed for left atrial function and size and for atrial fibrillation inducibility according to the protocols described in Example 3 (experimental design shown in FIG. 5), allowing for the effects of dobutamine to be compared to those of Compound I as shown in Example 3.

Row | SMILES | SBP, change induced by phenylephrine ([1]; PE 0.5-20 μg/kg/min fixed rate) | LAmin under phenylephrine ([1]; PE 0.5-20 μg/kg/min, from 22.9±2.0) | SBP under phenylephrine ([1]; PE 0.5-20 μg/kg/min, from 88.6±2.7) | LAmin, change induced by phenylephrine ([1]; PE 0.5-20 μg/kg/min, increase) | AF duration ([2]; dobutamine 1-10 μg/kg/hr infusion with PE) | LV contractility (ΔEF) ([2]; dobutamine 1-10 μg/kg/hr infusion)
1 | CNC[C@H](O)c1cccc(O)c1 [phenylephrine, reference compound] | 38±7% | 29.3±2.5 mL/m^2 | 122.4±6.9 mmHg | 28±3% |  | 
2 | CC(CCc1ccc(O)cc1)NCCc1ccc(O)c(O)c1 (stereo not drawn) [dobutamine] |  |  |  |  | did not reduce AF duration, and in fact increased it | increase LV contractility
